“And” between values parts separate entries of the source, which are not always exact repeats. Equal entries are not always repeated. After the bases stand the sugars from the 5' end (letter, count) and the backbone: PS all phosphorothioate, else s phosphorothioate and o phosphodiester by linkage. Methylation of C is not given here. e = 2'-O-(2-methoxyethyl) (MOE); k = constrained ethyl (cEt); d = 2'-deoxy (DNA)
What follows are sequences tested against IRF4. Details: ASO, MM.1R, 0.074 µM.

Sequence	target mRNA inhibition
GCAGTGATGTCAGGTT (sugars kkddddddddddkeke, PS)	25%

Same assay, conditions: ASO, MM.1R, 0.222 µM

Sequence	target mRNA inhibition
GCAGTGATGTCAGGTT (sugars kkddddddddddkeke, PS)	45%

Same assay, conditions: ASO, MM.1R, 0.666 µM

Sequence	target mRNA inhibition
GCAGTGATGTCAGGTT (sugars kkddddddddddkeke, PS)	63%

Same assay, conditions: ASO, MM.1R, 1 µM

Sequence	target mRNA inhibition
ACGTGTGCTTGCCAAG (sugars k3 d10 k3, PS)	54% and 55%
GGTCTGAGTTGTACAG (sugars k3 d10 k3, PS)	20%
GCAGTGATGTCAGGTT (sugars kddddddddddkekek, PS)	36%
TCAGTTTGTGAAGCAT (sugars kkdddddddddkdkdk, PS)	25%
GTGTCTAAAGTCCCAT (sugars kdddddddddkekeke, PS)	5%
TTATGTTAGCCAATTC (sugars kdddddddddkekeke, PS)	9% and 2%
GTGATGTCAGGTTTTC (sugars k2 d9 e3 k2, PS)	38%
TTTATGTTAGCCAATT (sugars k3 d10 k3, PS)	25% and 13%
GCATTTTATCATCCGA (sugars kdddddddddkekeke, PS)	23%
CTGCTTGAGGTTTTCC (sugars kkdddddddddkdkdk, PS)	36%
TCCCATCGAATCTGCC (sugars k3 d10 k3, PS)	-5%
GCAGTGATGTCAGGTT (sugars kkddddddddddkeke, PS)	67%

Same assay, conditions: ASO, MM.1R, 2 µM

Sequence	target mRNA inhibition
GCAGTGATGTCAGGTT (sugars kkddddddddddkeke, PS)	85%

Same assay, conditions: ASO, SK-MEL-28, 4 µM

Sequence	target mRNA inhibition
GAGGTCTTTGGGATTC (sugars k3 d10 k3, PS)	74%
CTCTTACTCCGCTGAG (sugars k3 d10 k3, PS)	-5%
GCTCAGCGCAGATGGG (sugars k3 d10 k3, PS)	-2%
CGCCGAAGTCAACAGG (sugars k3 d10 k3, PS)	44%
GCAAAGCCACCCTTCC (sugars k3 d10 k3, PS)	60%
TGGACTCGGAGCTGAG (sugars k3 d10 k3, PS)	24%
TCTCCCACACCAGCCC (sugars k3 d10 k3, PS)	6%
GATCGAGCGGTGAAAC (sugars k3 d10 k3, PS)	23%
GGGCTGTCCCTAGTGC (sugars k3 d10 k3, PS)	-9%
GAAAACAGCCGCCGGC (sugars k3 d10 k3, PS)	26%
CATCGAACTCCTGAGT (sugars k3 d10 k3, PS)	31%
ATCTTCACTGTTAGCT (sugars k3 d10 k3, PS)	74%
AGCAACACGGGAATTT (sugars k3 d10 k3, PS)	57%
TGGTACGGGATTTCCG (sugars k3 d10 k3, PS)	37%
TTCAAAGCGCACCGCA (sugars k3 d10 k3, PS)	49%
TCCTAACCCTGAGTAT (sugars k3 d10 k3, PS)	27%

Sequence	target mRNA inhibition
GACAGCTAAAGAACAC (sugars k3 d10 k3, PS)	19%
GTCTACATCTACTCCA (sugars k3 d10 k3, PS)	38%
CCCCAAAGAGAGTGGG (sugars k3 d10 k3, PS)	-11%
CGTTCCTTTTCAGAGT (sugars k3 d10 k3, PS)	30%
CAAGAACTGCTGTGTG (sugars k3 d10 k3, PS)	-5%
TGCCGTGTCAGGGTCG (sugars k3 d10 k3, PS)	11%
GGAGAAGTCCCGTGGA (sugars k3 d10 k3, PS)	59%
ATCCACAATCAGCAAG (sugars k3 d10 k3, PS)	51%
GACAGCTTCTTTGAAG (sugars k3 d10 k3, PS)	36%
TTACTTCCCTGAGAAA (sugars k4 d8 k4, PS)	14%
AGCACATGTCAACAGT (sugars k3 d10 k3, PS)	31%
CAACTAGCAGGGCACG (sugars k3 d10 k3, PS)	38%
TTCAGAGTCCTGAGAC (sugars k3 d10 k3, PS)	46%
TCTTGTGGACACTTTT (sugars k3 d10 k3, PS)	65%
CCAGAGGACCACGCCC (sugars k3 d10 k3, PS)	28%
